In patent publication US11161843B2, “Fused heterocyclic compound and composition containing same” (Sumitomo Chemical Company, Limited, priority 2017, dated 2021) one finds controlling value data, which are given here for 1 compound.

In one experiment the test system is cotton aphid. The experiment in a line: Test Example 2: irrigation into plant foot of cucumber seedling, cotton aphid inoculated after 7 days. The format is in vivo, Aphis gossypii. The note with it: 1,000 ppm, 5 mL/seedling irrigated into plant foot, aphids inoculated after 7 days, counted after additional 6 days. Here is the method:
The test compounds were made to a formulation according to the method described in the Formulation Example 5, and thereto was added water to prepare a diluted solution containing a prescribed concentration of the test compound. Cucumber seedling (on the developmental stage of the second true leaf) was planted in a container, and the diluted solutions in the ratio on 5 mL/seedling were irrigated into the plant foot. After 7 days, approximately 30 of cotton aphid (all stages of life) were inoculated onto the cucumber leaves. After additional 6 days, the number of the surviving insects was examined, and the controlling value was calculated by the following equation. Controlling value (%)={1−(Cb×Tai)/(Cai×Tb)}*100 wherein the symbols in the formula represent the following descriptions. Cb: Number of the test insects in untreated group; Cai: Number of the surviving insects at the time of the investigation in untreated group; Tb: Number of the test insects in treated group; Tai: Number of the surviving insects at the time of the investigation in treated group; Here the “untreated group” represents a group where a similar treatment procedure to that of the treated group except not using the test compound is done.

The test system of experiment [1] is brown planthopper (Nilaparvata lugens). The experiment in a line: Test Example 3: spray on rice seedling, brown planthopper larvae. To be noted: 500 ppm, spray 10 mL/seedling, 3rd instar larvae, counted after 6 days. The format is in vivo. As for the experimental part: The test compounds were made to a formulation according to the method described in the Formulation Example 5, and thereto was added water containing 0.03 v/v % of a spreader to prepare a diluted solution containing a prescribed concentration of the test compound.
Rice (Oryza sativa) seedling (on the developmental stage of the second true leaf) was planted in a container, and the diluted solutions were sprayed into the seedling in a ratio of 10 mL/seedling. Thereafter, 20 of 3rd instar larvae of brown planthopper (Nilaparvata lugens) were released onto the rice leaves. After 6 days, the number of the surviving insects was examined, and the mortality was calculated by the following equation. Mortality (%)={1−the number of the surviving insects/20}×100

For the compound `CCS(=O)(=O)c1ccc2nncn2c1-c1ccc(OCC(F)(F)C(F)(F)F)cn1` [compound 4], the controlling value (with cotton aphid; in experiment [1]) was not below 90% each time.
